Experimental data reported in patent US20230151003A1, “COMPOUNDS AND METHODS OF USE” (Exelixis, Inc., priority 2020, published 2023).
Structures can show the parent of a compound that is named as a salt.

Tests used:
Met = Met (Homo sapiens, UniProt P08581); test: Met autophosphorylation ELISA in PC-3 cells; type: cell-based; parameters: endogenous in cells; host or cells: PC-3 prostate cancer cells (ATCC #CRL-1435); conditions: Table 3 Cellular Activities, HGF-stimulated, phospho-Met ELISA, read-out: c-Met IC50
Procedure, shortened: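 IC50 derived by 4-parameter logistic regression of phospho-Met (panTyr) sandwich ELISA signal, scaled between HGF-stimulated DMSO and reference-inhibitor lysates. PC-3 cells, serum-starved 3 h, received an 8-point compound series (0.3% DMSO) for 1 h before 10 min stimulation with 100 ng/mL human HGF.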

AXL = molecular target: T1, AXL (Homo sapiens, UniProt P30530); test: AXL autophosphorylation ELISA in A-172 cells; type: cell-based; conditions: Table 3 Cellular Activities, Gas6-stimulated, phospho-AXL ELISA
T1 construct: endogenous in cells; host or cells: A-172 glioblastoma cells (ATCC #CRL-1620)
T1 sequence (P30530 26-894): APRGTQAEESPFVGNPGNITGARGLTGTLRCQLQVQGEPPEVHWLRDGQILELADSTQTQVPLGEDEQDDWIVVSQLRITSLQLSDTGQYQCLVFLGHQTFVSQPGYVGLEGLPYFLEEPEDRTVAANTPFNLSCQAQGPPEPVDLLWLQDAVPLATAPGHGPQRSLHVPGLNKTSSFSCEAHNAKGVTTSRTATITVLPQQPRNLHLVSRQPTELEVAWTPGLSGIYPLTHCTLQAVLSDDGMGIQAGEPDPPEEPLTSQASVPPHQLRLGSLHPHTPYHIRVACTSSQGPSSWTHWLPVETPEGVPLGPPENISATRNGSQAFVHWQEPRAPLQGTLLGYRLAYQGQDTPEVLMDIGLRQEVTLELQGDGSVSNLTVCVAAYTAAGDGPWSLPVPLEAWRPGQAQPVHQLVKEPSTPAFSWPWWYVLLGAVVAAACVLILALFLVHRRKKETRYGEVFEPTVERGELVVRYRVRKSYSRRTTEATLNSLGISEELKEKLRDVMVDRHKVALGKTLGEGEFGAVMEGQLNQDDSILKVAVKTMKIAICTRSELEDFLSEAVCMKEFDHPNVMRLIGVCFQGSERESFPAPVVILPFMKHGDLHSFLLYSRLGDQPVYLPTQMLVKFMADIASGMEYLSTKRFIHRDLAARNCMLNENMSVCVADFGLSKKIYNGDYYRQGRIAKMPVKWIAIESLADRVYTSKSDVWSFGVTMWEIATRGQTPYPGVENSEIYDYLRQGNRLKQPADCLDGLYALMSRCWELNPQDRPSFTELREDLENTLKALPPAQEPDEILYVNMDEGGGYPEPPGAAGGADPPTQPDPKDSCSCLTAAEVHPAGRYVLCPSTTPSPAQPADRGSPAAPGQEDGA
Procedure, shortened: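 Phospho-AXL in lysates measured by ELISA after Gas6 stimulation (1 μg/mL, 15 min) of A-172 cells pre-incubated 1 h with an 8-point compound dilution series in 0.3% DMSO after 24 h serum starvation. IC50 by 4-parameter logistic fit, with DMSO-treated and reference-inhibitor wells as 100% and 0% activity.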

Chain of Met (P08581 25-1390): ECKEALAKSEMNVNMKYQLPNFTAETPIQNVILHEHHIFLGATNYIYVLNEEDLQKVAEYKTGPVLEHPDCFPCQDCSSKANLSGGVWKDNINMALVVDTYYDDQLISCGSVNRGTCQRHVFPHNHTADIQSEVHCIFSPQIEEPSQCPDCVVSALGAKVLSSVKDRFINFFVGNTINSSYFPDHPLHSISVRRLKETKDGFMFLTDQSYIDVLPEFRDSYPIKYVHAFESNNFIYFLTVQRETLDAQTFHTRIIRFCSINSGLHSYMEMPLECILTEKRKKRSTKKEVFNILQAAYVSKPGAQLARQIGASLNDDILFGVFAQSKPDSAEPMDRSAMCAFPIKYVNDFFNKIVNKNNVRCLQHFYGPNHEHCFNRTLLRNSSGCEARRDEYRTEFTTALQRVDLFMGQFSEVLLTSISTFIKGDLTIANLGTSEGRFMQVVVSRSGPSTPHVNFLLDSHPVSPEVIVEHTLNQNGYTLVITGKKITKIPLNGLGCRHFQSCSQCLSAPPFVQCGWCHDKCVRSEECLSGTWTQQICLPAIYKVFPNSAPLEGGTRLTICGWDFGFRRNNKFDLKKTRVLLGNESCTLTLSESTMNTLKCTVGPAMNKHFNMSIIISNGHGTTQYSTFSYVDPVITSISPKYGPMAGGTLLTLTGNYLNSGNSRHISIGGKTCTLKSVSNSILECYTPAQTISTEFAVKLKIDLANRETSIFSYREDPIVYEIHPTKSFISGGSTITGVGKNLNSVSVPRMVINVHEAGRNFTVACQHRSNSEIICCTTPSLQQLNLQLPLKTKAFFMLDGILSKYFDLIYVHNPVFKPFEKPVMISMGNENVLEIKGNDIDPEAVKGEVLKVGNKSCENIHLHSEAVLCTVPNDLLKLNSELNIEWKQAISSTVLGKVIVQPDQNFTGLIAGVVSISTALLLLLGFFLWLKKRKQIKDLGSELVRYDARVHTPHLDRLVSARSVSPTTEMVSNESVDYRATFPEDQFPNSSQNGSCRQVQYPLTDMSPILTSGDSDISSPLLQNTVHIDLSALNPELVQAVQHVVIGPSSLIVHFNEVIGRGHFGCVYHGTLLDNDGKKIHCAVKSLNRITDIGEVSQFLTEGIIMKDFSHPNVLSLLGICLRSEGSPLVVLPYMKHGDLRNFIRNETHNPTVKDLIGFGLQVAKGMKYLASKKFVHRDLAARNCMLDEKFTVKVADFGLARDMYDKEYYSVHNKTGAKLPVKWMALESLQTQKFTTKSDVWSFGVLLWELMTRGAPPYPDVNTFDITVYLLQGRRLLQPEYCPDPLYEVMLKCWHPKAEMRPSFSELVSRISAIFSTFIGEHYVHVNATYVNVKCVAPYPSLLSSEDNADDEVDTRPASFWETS

Structure (SMILES) | IC50 (Met) [nM] | IC50 (AXL) [nM]
COCc1nc(C)c(-c2ccc(C)o2)c(O)c1C(=O)Nc1ccc(Oc2ccnc3cc(OC)c(OC)nc23)c(F)c1 [Compound 117, N-[4-[(6,7-Dimethoxy-1,5-naphthyridin-4-yl)oxy]-3-fluorophenyl]-4-hydroxy-2-(methoxymethyl)-6-methyl-5-(5-methylfuran-2-yl)pyridine-3-carboxamide] | ≤ 100 | ≤ 100
COc1cc2nccc(Oc3ccc(NC(=O)c4c(C)nc(C)c(-c5ccoc5)c4O)cc3F)c2nc1OC [Compound 112, N-[4-[(6,7-Dimethoxy-1,5-naphthyridin-4-yl)oxy]-3-fluoro-phenyl]-5-(3-furyl)-4-hydroxy-2,6-dimethyl-pyridine-3-carboxamide] | ≤ 100 | ≤ 100
COc1ccc2nccc(Oc3ccc(NC(=O)c4cnc(C)c(-c5cccs5)c4O)cc3F)c2n1 [Compound 128, N-[3-Fluoro-4-[(6-methoxy-1,5-naphthyridin-4-yl)oxy]phenyl]-4-hydroxy-6-methyl-5-thiophen-2-ylpyridine-3-carboxamide] | ≤ 100 | ≤ 100
COc1cc2nccc(Oc3ccc(NC(=O)c4cnc(C)c(-c5ccc(C6CC6)o5)c4O)cc3F)c2nc1OC [Compound 155A, 5-(5-Cyclopropylfuran-2-yl)-N-[4-[(6,7-dimethoxy-1,5-naphthyridin-4-yl)oxy]-3-fluorophenyl]-4-hydroxy-6-methylpyridine-3-carboxamide hydrochloride] | ≤ 100 | ≤ 100
COc1cnc2c(Oc3ccc(NC(=O)c4cnc(C)c(-c5cc(C)cs5)c4O)cc3F)ccnc2c1 [Compound 102, N-[3-Fluoro-4-[(7-methoxy-1,5-naphthyridin-4-yl)oxy]phenyl]-4-hydroxy-6-methyl-5-(4-methyl-2-thienyl) pyridine-3-carboxamide] | ≤ 100 | ≤ 100
COc1ccc2nccc(Oc3ccc(NC(=O)c4cnc(C)c(-c5ccco5)c4O)cc3F)c2n1 [Compound 118, N-[3-Fluoro-4-[(6-methoxy-1,5-naphthyridin-4-yl)oxy]phenyl]-5-(furan-2-yl)-4-hydroxy-6-methylpyridine-3-carboxamide] | ≤ 100 | ≤ 100
COc1cnc2c(Oc3ccc(NC(=O)c4cn(CCF)c(C)c(-c5ccoc5)c4=O)cc3F)ccnc2c1 [Compound 334, 1-(2-Fluoroethyl)-N-[3-fluoro-4-[(7-methoxy-1,5-naphthyridin-4-yl)oxy]phenyl]-5-(furan-3-yl)-6-methyl-4-oxopyridine-3-carboxamide] | ≤ 100 | ≤ 100

Second part, the compound after the results:

IC50 (Met) [nM] | IC50 (AXL) [nM] | Structure (SMILES)
≤ 100 | ≤ 100 | C=Cc1ccc(-c2c(C)ncc(C(=O)Nc3ccc(Oc4ccnc5cc(OC)c(OC)nc45)c(F)c3)c2O)o1 [Compound 151, N-[4-[(6,7-Dimethoxy-1,5-naphthyridin-4-yl)oxy]-3-fluorophenyl]-5-(5-ethenylfuran-2-yl)-4-hydroxy-6-methylpyridine-3-carboxamide]
≤ 100 | ≤ 100 | CCc1ccc(-c2c(C)nc(C)c(C(=O)Nc3ccc(Oc4ccnc5cc(OC)c(OC)nc45)c(F)c3)c2O)o1 [Compound 147, N-[4-[(6,7-Dimethoxy-1,5-naphthyridin-4-yl)oxy]-3-fluorophenyl]-5-(5-ethylfuran-2-yl)-4-hydroxy-2,6-dimethylpyridine-3-carboxamide]
≤ 100 | ≤ 100 | COc1cc2nccc(Oc3ccc(NC(=O)c4cnc(C)c(-c5ccnn5C)c4O)cc3F)c2nc1OC [Compound 104]
≤ 100 | ≤ 100 | C=CCc1ccc(-c2c(C)ncc(C(=O)Nc3ccc(Oc4ccnc5cc(OC)c(OC)nc45)c(F)c3)c2O)o1 [Compound 155, N-[4-[(6,7-Dimethoxy-1,5-naphthyridin-4-yl)oxy]-3-fluorophenyl]-4-hydroxy-6-methyl-5-(5-prop-2-enylfuran-2-yl)pyridine-3-carboxamide]
